Measurements as given in patent publication US7999132B2, “Anthranilic acid derivative or salt thereof” (Toyama Chemical Co., Ltd., priority 2004, dated 2011).

Tested on: MMP-13
Assay: MMP-13 Production Inhibition Test
Format: cell-based, human
Settings: SW1353 cells stimulated with IL-1β 10 ng/mL, MMP-13 in culture supernatant by ELISA 16 hours after stimulation; for inhibition at 30 µM: Homo sapiens, 30 μmol/L, read-out: Inhibition rate (%) at 30 μmol/L
Procedure: MMP-13 Production Inhibition Test
6.8×10^3 human cartilage derived cell line SW1353 cells were suspended in 100 μL of Dulbecco modified Eagle's medium supplemented with 10% fetal calf serum, plated on 96-well plates and cultured for 3 days. After the culture medium was changed to Dulbecco modified Eagle's medium containing 0.2% lactalbumin hydrolysate and the cells were cultured for 6 hours, […] were added and then IL-1β was added to obtain the final concentration of 10 ng/mL 1 hour later. 16 hours after the stimulation, supernatant was collected and the amount of MMP-13 in the culture supernatant was determined with an ELISA kit (Amersham). The inhibition rate was calculated from the amount of MMP-13 in the presence of a test compound assuming that the amount of MMP-13 was 100% in the absence of the test compound.

| SMILES | inhibition at 30 µM | Inhibition rate (%) at 30 μmol/L |
| --- | --- | --- |
| O=C(Nc1cc(-c2ccccc2)ccc1C(=O)O)c1ccccc1 [Example 4, 2-(benzamido)-4-phenylbenzoic acid] | 80% |  |
| O=C(Nc1cc(-c2cccs2)ccc1C(=O)O)c1ccccc1 [Example 7, 2-(Benzamido)-4-(thiophen-2-yl)benzoic acid] | 91% |  |
| O=C(Nc1cc(-c2cc3ccccc3o2)ccc1C(=O)O)c1ccccc1 [Example 8, 2-(benzamido)-4-(benzofuran-2-yl)benzoic acid] | 95% |  |
| O=C(Nc1cc(-c2ccc3c(c2)OCO3)ccc1C(=O)O)c1ccccc1 [Example 11, 2-(benzamido)-4-(benzo[1,3]dioxol-5-yl)benzoic acid] | 92% |  |
| O=C(Nc1cc(-c2ccc3c(c2)OCCO3)ccc1C(=O)O)c1ccccc1 [Example 15, 2-(Benzamido)-4-(2,3-dihydrobenzo[1,4]dioxin-6-yl)benzoic acid] | 88% |  |
| O=C(Nc1cc(-c2ccc(F)cc2F)ccc1C(=O)O)c1ccccc1 [Example 19, 2-(benzamido)-4-(2,4-difluorophenyl)benzoic acid] | 94% |  |
| COc1ccc(-c2ccc(C(=O)O)c(NC(=O)c3ccccc3)c2)cc1 [Example 22, 2-(Benzamido)-4-(4-methoxyphenyl)benzoic acid] | 81% |  |
| O=C(Nc1cc(/C=C/c2ccccc2)ccc1C(=O)O)c1ccccc1 [Example 24, 2-(benzamido)-4-((E)-2-phenylvinyl)benzoic acid] | 92% |  |
| O=C(Nc1cc(CCCCc2ccccc2)ccc1C(=O)O)c1ccccc1 [Example 33, 2-(benzamido)-4-(4-phenylbutyl)benzoic acid] | 97% |  |
| O=C(Nc1cc(Oc2ccccc2)ccc1C(=O)O)c1ccc2c(c1)OCO2 [Example 80, 2-(Benzo[1,3]dioxole-5-carboxamido)-4-phenoxybenzoic acid] | 92% |  |
| O=C(Nc1cc(Oc2ccccc2)ccc1C(=O)O)c1ccc2c(c1)OCCO2 [Example 83, 2-(2,3-Dihydrobenzo[1,4]dioxin-6-carboxamido)-4-phenoxybenzoic acid] | 93% |  |
| O=C(O)c1ccc(Oc2ccccc2)cc1NC(=O)C1CCCCC1 [Example 85, 2-(Cyclohexanecarboxamido)-4-phenoxybenzoic acid] | 60% |  |
| O=C(O)c1ccc(Oc2ccccc2)cc1NS(=O)(=O)c1ccccc1 [Example 88, 2-(Benzenesulfonamido)-4-phenoxybenzoic acid] | 80% |  |
| O=C(Nc1cc(Oc2ccccc2)ccc1C(=O)O)c1ccc(F)cc1 [Example 89, 2-(4-Fluorobenzamido)-4-phenoxybenzoic acid] | 94% |  |
| O=C(C=Cc1ccccc1)Nc1cc(Oc2ccccc2)ccc1C(=O)O [Example 91, 2-(Cinnamamido)-4-phenoxybenzoic acid] | 95% |  |
| O=C(Nc1cc(Oc2ccccc2)ccc1C(=O)O)c1ccc2occc2c1 [Example 96, 2-(Benzofuran-5-carboxamido)-4-phenoxybenzoic acid] | 96% |  |
| O=C(Nc1cc(Oc2ccccc2)ccc1C(=O)O)c1nc2ccccc2s1 [Example 97, 2-(Benzothiazole-2-carboxamido)-4-phenoxybenzoic acid] | 97% |  |
| O=C(Nc1cc(OCc2ccccc2)ccc1C(=O)O)c1ccccc1 [Example 99, 2-(benzamido)-4-(benzyloxy)benzoic acid] | 71% |  |
| O=C(Nc1cc(OC2CCCCC2)ccc1C(=O)O)c1ccccc1 [Example 105, 2-(benzamido)-4-(cyclohexyloxy)benzoic acid] | 64% |  |
| O=C(Nc1cc(/C=C/c2cc(F)cc(F)c2)ccc1C(=O)O)c1ccccc1 [Example 130, 2-(Benzamido)-4-((E)-2-(3,5-difluorophenyl)vinyl)benzoic acid] | 96% |  |
| O=C(Nc1cc(/C=C/c2cccc(Cl)c2)ccc1C(=O)O)c1ccccc1 [Example 134, 2-(Benzamido)-4-((E)-2-(3-chlorophenyl)vinyl)benzoic acid] | 99% |  |
| O=C(Nc1cc(CCc2ccc(OC(F)(F)F)cc2)ccc1C(=O)O)c1ccccc1 [Example 138, 2-(Benzamido)-4-(2-(4-(trifluoromethoxy)phenyl)ethyl)benzoic acid] | 95% |  |
| O=C(Nc1cc(/C=C/c2ccc(F)cc2F)ccc1C(=O)O)c1ccccc1 [Example 141, 2-(benzamido)-4-((E)-2-(2,4-difluorophenyl)vinyl)benzoic acid] | 95% |  |
| O=C(Nc1cc(/C=C/c2cccc3nsnc23)ccc1C(=O)O)c1ccccc1 [Example 146, 2-(Benzamido)-4-((E)-2-(2,1,3-benzothiadiazol-4-yl)vinyl)benzoic acid] | 97% |  |

| SMILES | inhibition at 30 µM | Inhibition rate (%) at 30 μmol/L |
| --- | --- | --- |
| O=C(Nc1cc(-c2ccc(F)cc2F)ccc1C(=O)O)c1ccc(F)cc1 [Example 150, 4-(2,4-difluorophenyl)-2-(4-fluorobenzamido)benzoic acid] | 96% |  |
| COc1cccc(/C=C/c2ccc(C(=O)O)c(NC(=O)c3ccc4c(c3)OCO4)c2)c1 [Example 157, 2-(Benzo[1,3]dioxole-5-carboxamido)-4-((E)-2-(3-methoxyphenyl)vinyl)benzoic acid] | 98% |  |
| O=C(Nc1cc(-c2cccc(Cl)c2)ccc1C(=O)O)c1ccc2c(c1)OCO2 [Example 163, 2-(Benzo[1,3]dioxole-5-carboxamido)-4-(3-chlorophenyl)benzoic acid] | 98% |  |
| O=C(Nc1cc(-c2ccc(O)cc2)ccc1C(=O)O)c1ccc(C(F)(F)F)cc1 [Example 176, 4-(4-Hydroxyphenyl)-2-(4-(trifluoromethyl)benzamido)benzoic acid] | 98% |  |
| Cc1cccc(C(=O)Nc2cc(-c3ccc(F)cc3F)ccc2C(=O)O)c1C [Example 189, 4-(2,4-difluorophenyl)-2-(2,3-dimethylbenzamido)benzoic acid] | 96% |  |
| O=C(Nc1cc(-c2cccc(Cl)c2)ccc1C(=O)O)c1ccc(O)cc1 [Example 196, 4-(3-chlorophenyl)-2-(4-hydroxybenzamido)benzoic acid] | 97% |  |
| O=C(Nc1cc(-c2ccc(Cl)cc2)ccc1C(=O)O)c1ccccc1 [Example 212, 2-(Benzamido)-4-(4-chlorophenyl)benzoic acid] | 95% |  |
| O=C(Nc1cc(-c2c(F)cccc2F)ccc1C(=O)O)c1ccccc1 [Example 217, 2-(Benzamido)-4-(2,6-difluorophenyl)benzoic acid] | 68% |  |
| O=C(Nc1cc(-c2cccc(Cl)c2)ccc1C(=O)O)c1ccccc1 [Example 222, 2-(benzamido)-4-(3-chlorophenyl)benzoic acid] | 98% |  |
| Cc1cccc(-c2ccc(C(=O)O)c(NC(=O)c3ccccc3)c2)c1C [Example 230, 2-(Benzamido)-4-(2,3-dimethylphenyl)benzoic acid] | 95% |  |
| O=C(Nc1cc(-c2cccc(OC(F)(F)F)c2)ccc1C(=O)O)c1ccccc1 [Example 234, 2-(Benzamido)-4-(3-(trifluoromethoxy)phenyl)benzoic acid] | 99% |  |
| Cc1ccc(-c2ccc(C(=O)O)c(NC(=O)c3ccccc3)c2)cc1 [Example 240] |  | 94% |
| O=C(Nc1cc(-c2ccc(O)cc2)ccc1C(=O)O)c1ccccc1 [Example 243, 2-(benzamido)-4-(4-hydroxyphenyl)benzoic acid] | 96% |  |
| O=C(Nc1cc(-c2c(F)cccc2Cl)ccc1C(=O)O)c1ccccc1 [Example 251, 2-(benzamido)-4-(2-chloro-6-fluorophenyl)benzoic acid] | 83% |  |
| O=C(O)c1ccc(CCc2ccccc2)cc1NC(=O)c1ccccc1C(F)(F)F [Example 255, 4-Phenethyl-2-(2-(trifluoromethyl)benzamido)benzoic acid] | 91% |  |
| Cc1ccc(C(=O)Nc2cc(CCc3ccccc3)ccc2C(=O)O)cc1C [Example 261, 2-(3,4-Dimethylbenzamido)-4-phenethylbenzoic acid] | 94% |  |
| Cc1cccc(C(=O)Nc2cc(CCc3ccccc3)ccc2C(=O)O)c1C [Example 262, 2-(2,3-Dimethylbenzamido)-4-phenethylbenzoic acid] | 93% |  |
| O=C(Nc1cc(CCc2ccccc2)ccc1C(=O)O)c1ccc(C(F)(F)F)cc1 [Example 264, 4-Phenethyl-2-(4-(trifluoromethyl)benzamido)benzoic acid] | 94% |  |
| O=C(Nc1cc(CCc2ccccc2)ccc1C(=O)O)c1cncc(-n2cccc2)c1 [Example 276, 4-Phenethyl-2-(5-(1H-pyrrol-1-yl)pyridine-3-carboxamido)benzoic acid] | 86% |  |
| O=C(Nc1cc(-c2ccccc2)ccc1C(=O)O)c1ccccc1F [Example 282] | 75% |  |
| O=C(Nc1cc(-c2ccccc2)ccc1C(=O)O)c1cccs1 [Example 301, 4-Phenyl-2-(thiophene-2-carboxamido)benzoic acid] | 80% |  |
| O=C(Nc1cc(-c2ccccc2)ccc1C(=O)O)c1ccc(Cl)cc1 [Example 316, 2-(4-Chlorobenzamido)-4-phenylbenzoic acid] | 96% |  |
| O=C(O)c1ccc(-c2ccccc2)cc1NC(=O)c1ccc(C(F)(F)F)cc1C(F)(F)F [Example 318, 4-Phenyl-2-(2,4-bis(trifluoromethyl)benzamido)benzoic acid] | 95% |  |
| Cc1cccc(C(=O)Nc2cc(Oc3ccccc3)ccc2C(=O)O)c1 [Example 325, 2-(3-Methylbenzamido)-4-phenoxybenzoic acid] | 91% |  |
